Laboratory results as given in patent US11548880B2, “Modulators of hemoglobin” (Global Blood Therapeutics, Inc., priority 2018, dated 2023).

Target: T1, Hb (Homo sapiens, UniProt P68871+P69905)
T1 construct: from tissue; host or cells: whole blood
Assay: Whole blood assay: oxygen equilibrium curves (Hemox Analyzer), change in p50
Type: cell-based
Settings: whole blood incubated 1 h at 37° C., equimolar ratio of hemoglobin to compound
Method: Whole blood assay: Oxygen equilibrium curves (OECs) were collected using a TCS Hemox Analyzer (TCS Scientific Company, New Hope, Pa., USA) to measure changes in the binding affinity of O2 to Hb. Whole blood was incubated for 1 h at 37° C. with the indicated compounds in an equimolar ratio of hemoglobin to compound and diluted into TES (2-[[1,3-dihydroxy-2-(hydroxymethyl)propan-2-yl]amino]ethanesulfonic acid)/saline buffer prior to measurements. For example, for whole blood at 20% hematocrit [Hct], which corresponds to 1 mM Hb, a compound concentration of 1 mM was used (for example, for compounds 1-5), and the incubated sample diluted 50- to 100-fold. The concentration for compounds 6-44 (Diastereomers 1 and 2) varied but remained in equimolar ratio to hemoglobin. The diluted samples were then oxygenated with compressed air within the Hemox Analyzer and the OECs were collected during deoxygenation as previously described (Guarnone et al., Haematologica, 1995, 80, 426-430). p 50 (partial pressure of O2 at which Hb is 50% saturated with O2) values were obtained using a non-linear regression analysis. Percentage change in p50 [Δp50(%)] was calculated as follows: Δp50(%)=[(p50 of control)−p50 with compound)/p50 control]×100.

T1 sequence (P69905 2-142 limits assumed): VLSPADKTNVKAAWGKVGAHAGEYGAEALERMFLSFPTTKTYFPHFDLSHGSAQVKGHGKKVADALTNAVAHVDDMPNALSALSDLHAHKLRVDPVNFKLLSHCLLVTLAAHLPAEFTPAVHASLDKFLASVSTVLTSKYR
T1 sequence (P68871 2-147 limits assumed): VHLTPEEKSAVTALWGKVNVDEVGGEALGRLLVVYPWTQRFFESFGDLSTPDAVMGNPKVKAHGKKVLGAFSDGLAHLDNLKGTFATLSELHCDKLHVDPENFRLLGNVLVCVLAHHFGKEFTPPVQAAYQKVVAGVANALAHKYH

SMILES | Delta-p50 (%)
N#CCCc1ccccc1C(=O)N1CCCC[C@H]1COc1cccc(O)c1C=O [Compound 15, (S)-3-(2-(2-((2-formyl-3-hydroxyphenoxy)methyl)piperidine-1-carbonyl)phenyl)propanenitrile] | 80.5
O=Cc1c(O)cccc1OC[C@@H]1CCCCN1C(=O)c1ccccc1C(O)CO (single isomer, unassigned) [34 (Diastereomer 2)] | 81.59
COCCc1ncccc1C(=O)N1CCC[C@H]1COc1cccc(O)c1C=O [Compound 24, 2-hydroxy-6-{[(2S)-1-[2-(2-methoxyethyl)pyridine-3-carbonyl]pyrrolidin-2-yl]methoxy}benzaldehyde] | 65.51
COCCc1ccccc1C(=O)N1CCOC[C@H]1COc1cccc(O)c1C=O [Compound 29, 2-hydroxy-6-{[(3S)-4-[2-(2-methoxyethyl)benzoyl]morpholin-3-yl]methoxy}benzaldehyde] | 78.79
O=Cc1c(O)cccc1OC[C@@H]1COCCN1C(=O)c1nccnc1CO [Compound 33, 2-hydroxy-6-{[(3S)-4-[3-(hydroxymethyl)pyrazine-2-carbonyl]morpholin-3-yl]methoxy}benzaldehyde] | 49.03
CC(O)Cc1ncccc1C(=O)N1CCOC[C@H]1COc1cccc(O)c1C=O (single isomer, unassigned) [42 (Diastereomer 1)] | 76.39
O=Cc1c(O)cccc1OC[C@H]1COCCN1C(=O)c1cccnc1CCO [Compound 37, 2-hydroxy-6-{[(3R)-4-[2-(2-hydroxyethyl)pyridine-3-carbonyl]morpholin-3-yl]methoxy}benzaldehyde] | 60.58
O=Cc1c(O)cccc1OC[C@@H]1CCCCN1C(=O)c1ccccc1CCN1CCCC1 [Compound 17, (S)-2-hydroxy-6-((1-(2-(2-(pyrrolidin-1-yl)ethyl)benzoyl)piperidin-2-yl)methoxy)benzaldehyde] | 27.09
CC(O)Cc1ncccc1C(=O)N1CCSC[C@H]1COc1cccc(O)c1C=O (single isomer, unassigned) [44 (Diastereomer 2)] | 54.34
O=Cc1c(O)cccc1OC[C@@H]1CCCCN1C(=O)c1ccccc1CCO [Compound 6, (S)-2-hydroxy-6-((1-(2-(2-hydroxyethyl)benzoyl)-piperidin-2-yl)methoxy)-benzaldehyde] | 74.5
N#CCCc1ncccc1C(=O)N1CCC[C@H]1COc1cccc(O)c1C=O [Compound 30, (S)-3-(3-(2-((2-formyl-3-hydroxyphenoxy)methyl)-pyrrolidine-1-carbonyl)-pyridin-2-yl)propanenitrile] | 74.19
O=Cc1c(O)cccc1OCC1CSCCN1C(=O)c1ccccc1CO (single isomer, unassigned) [40 (Enantiomer 1), 2-hydroxy-6-((4-(2-(hydroxymethyl)benzoyl)-thiomorpholin-3-yl)-methoxy)benzaldehyde] | 64.31
O=Cc1c(O)cccc1OCC1CSCCN1C(=O)c1cccnc1CCO (single isomer, unassigned) [10 (Enantiomer 1), 2-hydroxy-6-((4-(2-(2-hydroxyethyl)nicotinoyl)-thiomorpholin-3-yl)-methoxy)benzaldehyde] | 65.6
O=Cc1c(O)cccc1OCC1CSCCN1C(=O)c1cccnc1CO (single isomer, unassigned) [13 (Enantiomer 2), 2-hydroxy-6-((4-(2-(hydroxymethyl)nicotinoyl)-thiomorpholin-3-yl)-methoxy)benzaldehyde] | 61.0
COCCc1ccccc1C(=O)N1CCCC[C@H]1COc1cccc(O)c1C=O [Compound 14, (S)-2-hydroxy-6-((1-(2-(2-methoxyethyl)benzoyl)piperidin-2-yl)methoxy)benzaldehyde] | 74.56
N#CCCc1ccccc1C(=O)N1CCOC[C@H]1COc1cccc(O)c1C=O [Compound 31, 3-{2-[(3S)-3-[(2-formyl-3-hydroxyphenoxy)methyl]morpholine-4-carbonyl]phenyl}propanenitrile] | 74.03
CC(O)c1ncccc1C(=O)N1CCOC[C@H]1COc1cccc(O)c1C=O (single isomer, unassigned) [41 (Diastereomer 1)] | 66.71
O=Cc1c(O)cccc1OC[C@@H]1CCCCN1C(=O)c1ccccc1CO [Compound 5, (S)-2-hydroxy-6-((1-(2-(hydroxymethyl)benzoyl)piperidin-2-yl)methoxy)benzaldehyde] | 81.0
N#CCCc1ncccc1C(=O)N1CCCC[C@H]1COc1cccc(O)c1C=O [Compound 3, (S)-3-(3-(2-((2-formyl-3-hydroxyphenoxy)methyl)piperidine-1-carbonyl)pyridin-2-yl)propanenitrile] | 85.8
CC(O)Cc1ncccc1C(=O)N1CCOC[C@H]1COc1cccc(O)c1C=O (single isomer, unassigned) [42 (Diastereomer 2)] | 75.05
N#CCCc1ncccc1C(=O)N1CCOC[C@H]1COc1cccc(O)c1C=O [Compound 28, 3-{3-[(3S)-3-[(2-formyl-3-hydroxyphenoxy)methyl]morpholine-4-carbonyl]pyridin-2-yl}propanenitrile] | 83.35
O=Cc1c(O)cccc1OC[C@@H]1CCCCN1C(=O)c1ccccc1C(O)CO (stereo partly drawn) [Compound 34, 2-{[(2S)-1-[2-(1,2-dihydroxyethyl)benzoyl]piperidin-2-yl]methoxy}-6-hydroxybenzaldehyde] | 79.46
CC(O)c1ncccc1C(=O)N1CCSC[C@H]1COc1cccc(O)c1C=O (single isomer, unassigned) [43 (Diastereomer 1)] | 64.50
N#CCCc1nccnc1C(=O)N1CCOC[C@H]1COc1cccc(O)c1C=O [Compound 32, 3-{3-[(3S)-3-[(2-formyl-3-hydroxyphenoxy)methyl]morpholine-4-carbonyl]pyrazin-2-yl}propanenitrile] | 60.55
O=Cc1c(O)cccc1OC[C@H]1CCCCN1C(=O)c1cccnc1CCO [Compound 38, 2-hydroxy-6-{[(2R)-1-[2-(2-hydroxyethyl)pyridine-3-carbonyl]piperidin-2-yl]methoxy}benzaldehyde] | 60.85
O=Cc1c(O)cccc1OC[C@@H]1CCCCN1C(=O)c1cccnc1CCCO [Compound 18, (S)-2-hydroxy-6-((1-(2-(3-hydroxypropyl)nicotinoyl)-piperidin-2-yl)methoxy)-benzaldehyde] | 79.67
CC(O)c1ncccc1C(=O)N1CCSC[C@H]1COc1cccc(O)c1C=O (single isomer, unassigned) [43 (Diastereomer 2)] | 64.56
O=Cc1c(O)cccc1OC[C@@H]1CCCN1C(=O)c1ccccc1CO [Compound 26, 2-hydroxy-6-{[(2S)-1-[2-(hydroxymethyl)benzoyl]pyrrolidin-2-yl]methoxy}benzaldehyde] | 51.72
O=Cc1c(O)cccc1OCC1CSCCN1C(=O)c1ccccc1CO (stereo not drawn) [Compound 40, 2-hydroxy-6-({4-[2-(hydroxymethyl)benzoyl]thiomorpholin-3-yl}methoxy)benzaldehyde] | 72.82
CC(O)c1ncccc1C(=O)N1CCOC[C@H]1COc1cccc(O)c1C=O (single isomer, unassigned) [41 (Diastereomer 2)] | 53.94
